In patent US8470805B2, “Processes for preparing piperazinium salts of KMUP and use thereof” (Kaohsiung Medical University, priority 2009, dated 2013):

Columns and labels:
L1210 leukemia cell line = experiment: Cytotoxicity to cancer cells, MTT assay; assay type: cell-based; conditions: 3 days, n=6
Description: The methotrexate (MTX) is served as the positive control group. Briefly, the cancer cells (5000-10000 cells/ml) is added together with the compounds to be tested into each well of 96-well plate. After culturing for 3 days, the attached cells are cultured in MTT (0.5 mg/ml) for one hour, followed by dissolving the formazan crystal with dimethyl sulfoxide (DMSO). The absorption at 550 nm wave length is measured by the enzyme linked immunosorbent assay (ELISA) reader. IC50 is the concentration of the tested compound for inhibiting 50% cell growth under the experimental conditions.

C57BL/6J mice [1] = experiment: The lipid-lowering effect in C57BL/6J mice (high-fat diet); assay type: in vivo; conditions: HFD, after 21 days
Description: (§1) 8-week C57BL/6J mice are divided into standard diet (STD) group and the high-fat diet (HFD) group. In the HFD group, the KMUP-1 HCl salt (1, 2.5 and 5 mg/kg), the simvastatin (5 mg/kg), the KMUP-1-Nicotinic acid complex (1 and 5 mg/kg), the KMUP-1-Simvastatinic acid complex (1 and 5 mg/kg), KMUP-1-Gemfibrozil complex (2.5 mg/kg), KMUP-1-Fibric acid complex (2.5 mg/kg), KMUP-1-γ-polyglutamic acid complex (2.5 mg/kg) and KMUP-1-Citric acid complex (2.5 mg/kg) are administered orally. After 21 days, the amounts (mg/dl) of the triglyceride (TG), the total cholesterol (tot.-C), the high density lipoprotein cholesterol (HDL-C), the low density lipoprotein cholesterol (LDL-C) and the serum glucose of six mice for each group are measured as shown in Tables 2 and 3.

C57BL/6J mice [2] = experiment: The amount of the serum glucose and insulin in C57BL/6J mice (high-fat diet); assay type: in vivo; conditions: 1 mg/kg orally, HFD, after 21 days
Description: as §1

[3] = test system: STZ-induced diabetic rats; experiment: Serum glucose and body weight in streptozosin (STZ)-induced diabetic rats; assay type: in vivo; conditions: after 21 days
Description: 2. The effect of KMUP-1 on decreasing the amount of the serum glucose in streptozosin (STZ)-induced diabetic rats
60 mg/kg of streptozosin is injected intravenously for inducing the STZ-induced rats, and the KMUP-1 HCl salt (0.5, 1.5, 2.5 and 5 mg/kg) and KMUP-1-Simvastatinic acid (5 mg/kg) are administered orally. After 21 days, the amount of the serum glucose (mg/dl), the amount of the serum insulin (mg/dl), the body weight (g) and the change of the body weight are measured.

[4] = test system: STZ-induced diabetic rats; experiment: Change of insulin and fasting blood glucose after administration, STZ-induced diabetic rats; assay type: in vivo
Description: Nateglinide, repaglinide or the placebo is administered on day 1 before one hour of the breakfast, and the KMUP-1/KMUP-1-Nateglinide or KMUP-1-Repaglinide are orally administered at 1, 2, 3, 4, 5 and 6 hrs respectively. The amount of the serum glucose (mg/dl), the amount of the serum insulin (mg/dl), the body weight (g) and the change of the body weight are measured.

[5] = test system: U46619-induced platelet aggregation; experiment: Antiplatelet aggregation activity (U46619-induced, turbidity, Lumi-aggregometer); assay type: cell-based; conditions: 20 μM, rabbit platelets, n=8
Description: 4. […] After centrifuging at […] for 10 mins, the supernatant is platelet-rich plasma (PRP). The platelet suspension is obtained from EDTA-anticoagulated PRP, and the platelet granules are finally suspended in the Tyrode's solution. […] The turbidity is measured at 37° C. by Lumi-aggregometer connected with two dual channel recorders as the aggregation.

[6] = test system: monocrotaline (MCT)-treated rats; experiment: Pulmonary artery blood pressure in monocrotaline (MCT)-treated rats; assay type: in vivo, male Wistar rats; conditions: 2.5 mg/kg/day p.o.
Description: 5. the monocrotaline (MCT)-treated rats show the […] pulmonary aterial hypertension
Pulmonary aterial hypertension in MCT-treated rats is caused on day 21 after the intraperitoneal injection. Orally administered KMUP-1 HCl salt (2.5 mg/kg), simvastatin (2.5 mg/kg), KMUP-1-nicotinic acid complex (2.5 mg/kg), KMUP-1-Citric acid complex (2.5 mg/kg), KMUP-1-Simvastatinic acid complex (2.5 mg/kg) and KMUP-1-γ-Polyglutamic acid complex (2.5 mg/kg), or the inhalated KMUP-1-PGI2 (0.1 mM) every day may inhibit the male Wistar rats treated with MCT, which show the effect of decreasing the pulmonary artery blood pressure (PABP).

TGF-β = experiment: Bleomycin-induced lung fibrosis in mice, TGF-β expression by EIA; assay type: in vivo; conditions: 2.5 mg/kg orally, bleomycin 60 mg/kg
Description: 6. KMUP-1 salts inhibit the lung fibrosis in mice induced by bleomycin (BM) mediated via transforming growth factor beta (TGF-β) expression in lung The increased amount of the synthetic collagen and the generation of the macrophage in alveolus may facilitate the formulation of TGF-β, and the expression of TGF-β is looked as a biomarker of the lung fibrosis. […] The state of the TGF-β expression in the irrigation solution is measured by the enzyme immunoassay (EIA).

[7] = test system: testosterone-induced mice; experiment: Prostate hypertrophy (BPH) in testosterone-induced mice; assay type: in vivo; conditions: 2.5 mg/kg, testosterone 3 mg/kg/day for 4 weeks, day 28, n=6
Description: The testosterone (TS, 3 mg/kg/day) is administered for 4 weeks for inducing BPH in mice, which combines with KMUP-1 HCl salt (2.5 mg/kg), KMUP-1-Citric acid (2.5 mg/kg) and KMUP-1-Nicotinic acid (2.5 mg/kg), and the ratio of hypertrophy (g)/body weight (g) is measured at day 28 (n=6).

H1N1 virus = assay type: cell-based; conditions: MDCK culture infected with H1N1 virus
RAW 264.7 cells = experiment: Inhibition of RANKL-induced osteoclast differentiation (TRAP staining); assay type: cell-based; conditions: 5 μM, RANKL 10 μg/ml, 5 days, n=5

Structure (SMILES): CN(Cc1cnc2nc(N)nc(N)c2n1)c1ccc(C(=O)N[C@@H](CCC(=O)O)C(=O)O)cc1.Cn1c(=O)c2c(ncn2CCN2CCN(c3ccccc3Cl)CC2)n(C)c1=O [KMUP-1-MTX, KMUP-1-Methotrexate (MTX) Complex]
- IC50 (L1210 leukemia cell line): 20 nM

Structure (SMILES): CN(Cc1cnc2nc(N)nc(N)c2n1)c1ccc(C(=O)N[C@@H](CCC(=O)O)C(=O)O)cc1 [MTX, methotrexate, reference compound]
- IC50 (L1210 leukemia cell line; Mus musculus, 72 h): 12 nM

Structure (SMILES): Cl.Cn1c(=O)c2c(ncn2CCN2CCN(c3ccccc3Cl)CC2)n(C)c1=O [KMUP-1 HCl salt, 7-[2-[4-(2-chlorobenzene)piperazinyl]ethyl]-1,3-dimethyl xanthine HCl]
- HDL-C (C57BL/6J mice [1]; 2.5 mg/kg orally): 103.55 ± 4.2 mg/dL
- LDL-C (C57BL/6J mice [1]; 2.5 mg/kg orally): 14.17 ± 1.4 mg/dL
- TG (C57BL/6J mice [1]; 2.5 mg/kg orally): 74.5 ± 5.1 mg/dL
- tot.-C (C57BL/6J mice [1]; 2.5 mg/kg orally): 133 ± 5.1 mg/dL
- HDL-C (C57BL/6J mice [1]; 5 mg/kg orally): 118.32 ± 5.7 mg/dL
- LDL-C (C57BL/6J mice [1]; 5 mg/kg orally): 14.2 ± 2.2 mg/dL
- TG (C57BL/6J mice [1]; 5 mg/kg orally): 72.67 ± 4.7 mg/dL
- tot.-C (C57BL/6J mice [1]; 5 mg/kg orally): 125.5 ± 9.8 mg/dL
- The amount of serum glucose (C57BL/6J mice [2]): 120.4 ± 4.2 mg/dL
- The amount of the serum glucose ([3]; 0.5 mg/kg orally): 215.4 ± 19.6 mg/dL
- The amount of the serum glucose ([3]; 1.5 mg/kg orally): 215.4 ± 23.8 mg/dL
- The amount of the serum glucose ([3]; 2.5 mg/kg orally): 210.4 ± 15.7 mg/dL
- The amount of the serum glucose ([3]; 5 mg/kg orally): 200.2 ± 14.2 mg/dL
- The change of the fasting blood glucose after administration ([4]; 1 mg/kg, 1 hr): 3.7 ± 0.6 mg/dL
- The change of the insulin after administration ([4]; 1 mg/kg, 1 hr): 10.1 ± 1.8 U/mL
- The change of the fasting blood glucose after administration ([4]; 1 mg/kg, 2 hr): 2.3 ± 0.7 mg/dL
- The change of the insulin after administration ([4]; 1 mg/kg, 2 hr): 16.4 ± 2.2 U/mL
- The change of the insulin after administration ([4]; 1 mg/kg, 3 hr): 12.6 ± 2.4 U/mL
- The change of the insulin after administration ([4]; 1 mg/kg, 4 hr): 6.7 ± 2.4 U/mL
- The change of the fasting blood glucose after administration ([4]; 1 mg/kg, 6 hr): 0.1 ± 0.5 mg/dL
- The change of the insulin after administration ([4]; 1 mg/kg, 6 hr): 1.8 ± 0.7 U/mL
- The change of the fasting blood glucose after administration ([4]; 2 mg/kg, 1 hr): 4.3 ± 0.4 mg/dL
- The change of the insulin after administration ([4]; 2 mg/kg, 1 hr): 26.4 ± 1.3 U/mL
- The change of the fasting blood glucose after administration ([4]; 2 mg/kg, 2 hr): 2.5 ± 0.2 mg/dL
- The change of the insulin after administration ([4]; 2 mg/kg, 2 hr): 30.6 ± 4.6 U/mL
- The change of the insulin after administration ([4]; 2 mg/kg, 3 hr): 13.8 ± 3.6 U/mL
- The change of the insulin after administration ([4]; 2 mg/kg, 4 hr): 9.5 ± 1.7 U/mL
- The change of the fasting blood glucose after administration ([4]; 2 mg/kg, 6 hr): 0.3 ± 0.7 mg/dL
- The change of the insulin after administration ([4]; 2 mg/kg, 6 hr): 4.6 ± 0.8 U/mL
- The change of the fasting blood glucose after administration ([4]; 3 mg/kg, 1 hr): 5.2 ± 0.9 mg/dL
- The change of the insulin after administration ([4]; 3 mg/kg, 1 hr): 38.2 ± 3.8 U/mL
- The change of the fasting blood glucose after administration ([4]; 3 mg/kg, 2 hr): 1.7 ± 0.1 mg/dL
- The change of the insulin after administration ([4]; 3 mg/kg, 2 hr): 32.6 ± 6.4 U/mL
- The change of the insulin after administration ([4]; 3 mg/kg, 3 hr): 21.4 ± 2.6 U/mL
- The change of the insulin after administration ([4]; 3 mg/kg, 4 hr): 18.4 ± 2.4 U/mL
- The change of the fasting blood glucose after administration ([4]; 3 mg/kg, 6 hr): -0.1 ± 0.3 mg/dL
- The change of the insulin after administration ([4]; 3 mg/kg, 6 hr): 7.4 ± 3.6 U/mL
- The change of the fasting blood glucose after administration ([4]; 4 mg/kg, 1 hr): 5.7 ± 0.8 mg/dL
- The change of the insulin after administration ([4]; 4 mg/kg, 1 hr): 37.4 ± 3.6 U/mL
- The change of the fasting blood glucose after administration ([4]; 4 mg/kg, 2 hr): 1.5 ± 0.2 mg/dL
- The change of the insulin after administration ([4]; 4 mg/kg, 2 hr): 47.3 ± 2.3 U/mL
- The change of the insulin after administration ([4]; 4 mg/kg, 3 hr): 27.8 ± 2.8 U/mL
- The change of the insulin after administration ([4]; 4 mg/kg, 4 hr): 14.8 ± 3.7 U/mL
- The change of the fasting blood glucose after administration ([4]; 4 mg/kg, 6 hr): -0.3 ± 0.1 mg/dL
- The change of the insulin after administration ([4]; 4 mg/kg, 6 hr): 2.8 ± 0.5 U/mL
- The ratio of the antiplatelet aggregation [5]: 89 ± 3.4 %
- PABP [6]: 13 ± 1.7 mmHg
- Changing % of the lung TGF-β (TGF-β): 52 ± 5.2 %
- hypertrophy (g)/body weight (g) [7]: 0.21 ± 0.04
- growth of the virus (in words) (H1N1 virus; in glucose solution): can inhibit the growth of the virus
- IC50 (H1N1 virus; n=6): 5.2 µg/mL
- IC50 (L1210 leukemia cell line): 26 nM
- TRAP-Positive Cells (RAW 264.7 cells): 80 ± 6

Structure (SMILES): Cn1c(=O)c2c(ncn2CCN2CCN(c3ccccc3Cl)CC2)n(C)c1=O.O=C(O)CC(O)(CC(=O)O)C(=O)O [KMUP-1-Citric acid, KMUP-1-Citric acid salt]
- HDL-C (C57BL/6J mice [1]; 2.5 mg/kg orally): 108.4 ± 1.3 mg/dL
- LDL-C (C57BL/6J mice [1]; 2.5 mg/kg orally): 16.4 ± 1.7 mg/dL
- TG (C57BL/6J mice [1]; 2.5 mg/kg orally): 83.2 ± 5.3 mg/dL
- tot.-C (C57BL/6J mice [1]; 2.5 mg/kg orally): 129.7 ± 1.6 mg/dL
- The ratio of the antiplatelet aggregation [5]: 78 ± 2.7 %
- PABP [6]: 16 ± 1.8 mmHg
- hypertrophy (g)/body weight (g) [7]: 0.23 ± 0.05
